Assay results published in publication PMC12154458, “High-Throughput Screens of Repurposing Hub and DOS Chemical Libraries Reveal Compounds with Novel and Potent Inhibitory Activity Against the Essential Non-Neuronal Acetylcholinesterase of Schistosoma mansoni (SmTAChE)” (International Journal of Molecular Sciences, 2025).
Read-outs that look alike come from different tables or passages of the source.

How the values were obtained:
[1] = target: recombinant human acetylcholinesterase, rHsAChE (Homo sapiens, UniProt P22303); assay: biochemical
Sequence of recombinant human acetylcholinesterase, rHsAChE (P22303 32-614): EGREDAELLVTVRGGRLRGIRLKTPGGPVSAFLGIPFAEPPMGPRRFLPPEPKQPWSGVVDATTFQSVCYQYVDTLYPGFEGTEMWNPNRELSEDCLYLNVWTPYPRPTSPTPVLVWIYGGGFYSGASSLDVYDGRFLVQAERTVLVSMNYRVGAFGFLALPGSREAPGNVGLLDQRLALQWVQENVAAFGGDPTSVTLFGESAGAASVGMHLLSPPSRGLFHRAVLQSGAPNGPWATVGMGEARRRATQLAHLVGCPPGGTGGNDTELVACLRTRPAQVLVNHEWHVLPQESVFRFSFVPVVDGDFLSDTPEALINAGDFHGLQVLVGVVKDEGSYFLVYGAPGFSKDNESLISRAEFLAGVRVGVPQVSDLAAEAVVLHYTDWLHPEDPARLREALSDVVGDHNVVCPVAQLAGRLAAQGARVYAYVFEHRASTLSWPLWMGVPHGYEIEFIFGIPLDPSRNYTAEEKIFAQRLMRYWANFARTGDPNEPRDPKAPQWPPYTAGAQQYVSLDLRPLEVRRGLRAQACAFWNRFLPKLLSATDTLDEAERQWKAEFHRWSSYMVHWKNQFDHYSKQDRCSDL

rSmTAChE [2] = target: T1, rSmTAChE (Schistosoma mansoni, UniProt A0A3Q0KMM5); assay: biochemical
T1 sequence (A0A3Q0KMM5 27-661 limits assumed): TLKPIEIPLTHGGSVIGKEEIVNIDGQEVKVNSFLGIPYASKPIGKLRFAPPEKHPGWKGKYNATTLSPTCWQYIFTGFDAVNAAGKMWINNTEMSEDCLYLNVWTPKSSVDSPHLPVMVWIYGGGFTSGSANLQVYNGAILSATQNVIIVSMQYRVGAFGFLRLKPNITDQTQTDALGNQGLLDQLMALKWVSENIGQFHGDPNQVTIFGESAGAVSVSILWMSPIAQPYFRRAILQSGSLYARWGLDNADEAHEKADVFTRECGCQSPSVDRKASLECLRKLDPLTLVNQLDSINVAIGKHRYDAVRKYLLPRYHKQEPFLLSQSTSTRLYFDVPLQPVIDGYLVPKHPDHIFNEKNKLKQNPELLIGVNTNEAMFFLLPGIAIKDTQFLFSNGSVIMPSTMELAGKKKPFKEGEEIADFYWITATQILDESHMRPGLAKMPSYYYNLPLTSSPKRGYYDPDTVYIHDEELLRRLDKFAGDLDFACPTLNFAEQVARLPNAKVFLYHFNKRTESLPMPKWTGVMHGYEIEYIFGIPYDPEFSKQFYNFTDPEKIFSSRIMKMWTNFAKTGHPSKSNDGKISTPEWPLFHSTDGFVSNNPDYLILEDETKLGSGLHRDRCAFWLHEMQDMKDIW

rSmTAChE [3] = target: T1, rSmTAChE; type: biochemical; settings: for IC50: read-out: qAC50 (IC50), rSmTAChE
[4] = read-out: qAC50 (IC50), rHsAChE
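Wherever Inhibition (%) (Average) is given: mostly 20 µM final but a few compounds at 5 or 10 µM.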
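Wherever Inhibition (%) Replicate A is given: mostly 20 µM final but a few compounds at 5 or 10 µM.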
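Wherever Inhibition (%) Replicate B is given: mostly 20 µM final but a few compounds at 5 or 10 µM.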

Row | Structure (SMILES) | Data Mode (curve class), rHsAChE [1] | Inhibition (%) (Average) (rSmTAChE [2]) | Inhibition (%) Replicate A (rSmTAChE [2]) [%] | Inhibition (%) Replicate B (rSmTAChE [2]) [%] | Data Mode (curve class), rSmTAChE (rSmTAChE [3]) | IC50 (rSmTAChE [3]) [µM] | IC50 [1, 4] [µM] | IC50 ([1]; Table 2, DOS-A library, Inactive = inactive at the maximum tested concentration (40 µM), read-out: IC50 (µM) rHsAChE) [µM] | IC50 ([1]; Table S4, DOS-A (IC50 values; qAC50), read-out: rHsAChE qAC50) [µM] | rHsAChE Data Mode ([1]; dose response curve classification, Table S4, DOS-A) | inhibition at 20 µM (rSmTAChE [2]; read-out: rSmTAChE HTS Inhibition (Ave, %)) [%] | SI (Hs/Sm) (rSmTAChE [3]) | rSmTAChE Data Mode (rSmTAChE [3]) | rHsAChE Data Mode [1]
1 | C#C[C@]1(OC(C)=O)CC[C@H]2[C@@H]3CCC4=C[C@@H](OC(C)=O)CC[C@@H]4[C@H]3CC[C@@]21C [BRD-K46331928-001-05-8] | inactive | 94.91 | 95.51 | 94.31 | decreasing (weakly active) | > 38 | – | – | – | – | – | – | – | –
2 | CCCCCCCCCCCCCCCC[N+](C)(C)C [BRD-K47079459-004-04-6] | decreasing | 64.20 | 65.92 | 62.47 | decreasing | 17 | 10.3 | – | – | – | – | – | – | –
3 | CC(C)(C)[S+]([O-])N1Cc2cc(C(=O)NCCN3CCCC3)nc(-c3cccc(-c4ccc(C#N)cc4)c3)c2C1CCO (stereo not shown) [BRD-K49441594-001-01-4] | – | – | – | – | – | – | – | 35.5 | 35.5 | decreasing | 61.8 | 2.35 | decreasing | –
4 | O=C(C[C@H]1C[C@H]2c3cc(NC(=O)Nc4ccc(C(F)(F)F)cc4)ccc3O[C@H]2[C@H](CO)O1)NC1CCCCC1 [BRD-K50094564-001-01-3] | – | 69.15 | 68.27 | 70.03 | – | – | – | – | – | – | – | – | decreasing (weakly active) | inactive
5 | N#Cc1ccc(N2NC3=C(CCc4cc(C(=O)O)ccc43)[C@@H]2C2CCCC2)cc1Cl [BRD-K51041191-001-01-4] | decreasing (weakly active) | 66.80 | 70.13 | 63.46 | decreasing (weakly active) | > 38 | > 38 | – | – | – | – | – | – | –
6 | O=C1[C@@H]2[C@H]3CC[C@H](C3)[C@@H]2C(=O)N1C[C@@H]1CCCC[C@H]1CN1CCN(c2nsc3ccccc23)CC1 [BRD-K51143828-003-03-1] | inactive | 77.24 | 79.39 | 75.09 | decreasing (weakly active) | > 38 | – | – | – | – | – | – | – | –
7 | CC(C)Oc1ccc(-c2nn([C@@H](C)c3oc4ccc(F)cc4c(=O)c3-c3cccc(F)c3)c3ncnc(N)c23)cc1F [BRD-K52579889-001-01-9] | inactive | 65.60 | 66.50 | 64.70 | decreasing (weakly active) | > 38 | – | – | – | – | – | – | – | –
8 | CCc1nc(-c2cccc(C)c2)c(-c2ccnc(NC(=O)c3ccccc3)c2)s1 [BRD-K52751261-001-08-7] | decreasing (weakly active) | 70.66 | 75.76 | 65.56 | inactive | – | > 6.8 | – | – | – | – | – | – | –
9 | COc1ccc(C#Cc2ccc3c(c2)O[C@H](CN(C)S(=O)(=O)c2ccccc2F)[C@@H](C)CN([C@H](C)CO)S3(=O)=O)cc1 [BRD-K53241408-001-01-7] | – | 74.07 | 75.51 | 72.63 | – | – | – | – | – | – | – | – | inactive | inactive
10 | COc1ccc(NC(=O)Nc2ccc3c(c2)[C@H]2C[C@@H](CC(=O)NCC(F)(F)F)O[C@@H](CO)[C@H]2O3)cc1 [BRD-K54729370-001-01-4] | – | 90.84 | 91.00 | 90.69 | – | – | – | – | – | – | – | – | inactive | inactive
11 | CCCCC/C=C\C/C=C\C/C=C\C/C=C\CCCC(=O)Nc1ccc(O)cc1 [BRD-K55462201-001-07-3] | decreasing | 74.15 | 71.40 | 76.90 | inactive | – | 22.4 | – | – | – | – | – | – | –
12 | CCOC(=O)N1c2ccc(C(F)(F)F)cc2[C@@H](N(Cc2cc(C(F)(F)F)cc(C(F)(F)F)c2)C(=O)OC)C[C@H]1CC [BRD-K55675242-001-03-0] | decreasing (weakly active) | 71.11 | 72.88 | 69.34 | inactive | – | > 38 | – | – | – | – | – | – | –
13 | CCc1c(C(=O)NCCc2ccc(N3CCCCC3)cc2)[nH]c2ccc(Cl)cc12 [BRD-K57597776-001-01-2] | inactive | 61.28 | 60.33 | 62.24 | inactive | – | – | – | – | – | – | – | – | –
